≈ marks a conversion by molar mass, not a printed value.
Legend:
E. coli MG1655 = experiment: MIC, broth microdilution (CLSI) versus planktonic bacteria; assay type: cell-based, Escherichia coli; conditions: Escherichia coli, MG1655, read-out: MIC, Ec MG1655 WT
[1] = system: Streptococcus pneumoniae ATCC 49619; experiment: as above; assay type: cell-based; conditions: ATCC49619; Streptococcus pneumoniae ATCC 49619; 16-20 h; mode of three independent experiments; read-out: MIC, Sp ATCC 49619
[2] = system: Enterobacter cloacae NCTC 13406; experiment: as above; assay type: cell-based; conditions: NCTC13406; Enterobacter cloacae NCTC 13406; 16-20 h; mode of three independent experiments; read-out: MIC, Ecl NCTC 13406
[3] = system: Acinetobacter baumannii NCTC 13420; experiment: as above; assay type: cell-based; conditions: NCTC13420; Acinetobacter baumannii NCTC 13420; 16-20 h; mode of three independent experiments; read-out: MIC, Ab NCTC 13420
E. coli MG1655 D87G = assay type: cell-based, Escherichia coli; conditions: compared to the isogenic parent strain E. coli MG1655; D87G mutation on DNA gyrase subunit GyrA
E. coli NCTC 13476 = experiment: MIC, broth microdilution (CLSI) versus planktonic bacteria; assay type: cell-based; conditions: NCTC13476; Escherichia coli NCTC 13476; 16-20 h; mode of three independent experiments; read-out: MIC, Ec NCTC 13476
E. coli MG1655 S83L = assay type: cell-based, Escherichia coli; conditions: compared to the isogenic parent strain E. coli MG1655; S83L mutation on DNA gyrase subunit GyrA
E. coli ATCC BAA-2452 = experiment: MIC, broth microdilution (CLSI) versus planktonic bacteria; assay type: cell-based; conditions: Escherichia coli ATCC BAA-2452; 16-20 h; mode of three independent experiments; read-out: MIC, Ec ATCC BAA 2452
[4] = system: human hepatic cell line (HepG2 ATCC HB-8065); experiment: Human cell viability assay (CellTiter-Glo); conditions: Homo sapiens, HepG2, 24 h, read-out: IC50 (μg/mL) HepG2
[5] = system: Staphylococcus aureus ATCC 29213; experiment: MIC, broth microdilution (CLSI) versus planktonic bacteria; assay type: cell-based; conditions: ATCC29213; Staphylococcus aureus ATCC 29213; 16-20 h; mode of three independent experiments; read-out: MIC, Sa ATCC 29213
[6] = system: Enterococcus faecium ATCC 19434; experiment: as above; assay type: cell-based; conditions: ATCC19434, 16-20 h, mode of three independent experiments, read-out: MIC, Efm ATCC 19434
[7] = system: Escherichia coli ATCC 25922; experiment: as above; assay type: cell-based; conditions: ATCC25922; Escherichia coli ATCC 25922; 16-20 h; mode of three independent experiments; read-out: MIC, Ec ATCC 25922
[8] = system: Haemophilus influenzae ATCC 49247; experiment: as above; assay type: cell-based; conditions: ATCC49247; Haemophilus influenzae ATCC 49247; 16-20 h; mode of three independent experiments; read-out: MIC, Hi ATCC 49247
[9] = system: Acinetobacter baumannii ATCC 19606; experiment: as above; assay type: cell-based; conditions: ATCC19606; Acinetobacter baumannii ATCC 19606; 16-20 h; mode of three independent experiments; read-out: MIC, Ab ATCC 19606
[10] = system: Pseudomonas aeruginosa ATCC 27853; experiment: as above; assay type: cell-based; conditions: ATCC27853; Pseudomonas aeruginosa ATCC 27853; 16-20 h; mode of three independent experiments; read-out: MIC, Pa ATCC 27853
[11] = system: Enterococcus faecalis ATCC 29212; experiment: as above; assay type: cell-based; conditions: ATCC29212, 16-20 h, mode of three independent experiments, read-out: MIC, Ef ATCC 29212
[12] = system: fluoroquinolone-resistant Enterococcus faecium ATCC 700221; experiment: as above; assay type: cell-based; conditions: ATCC700221, 16-20 h, mode of three independent experiments, read-out: MIC, Efm ATCC 700221

Row | SMILES | MIC (E. coli MG1655) [µg/mL] | MIC [1] [µg/mL] | MIC [2] [µg/mL] | MIC [3] [µg/mL] | Fold increase in MIC, E. coli MG1655 D87G (E. coli MG1655 D87G) [fold] | MIC (E. coli NCTC 13476) [µg/mL] | Fold increase in MIC, E. coli MG1655 S83L (E. coli MG1655 S83L) [fold] | MIC (E. coli ATCC BAA-2452) [µg/mL] | IC50 [4] [µg/mL] | MIC [5] [µg/mL] | MIC [6] [µg/mL] | MIC [7] [µg/mL] | MIC [8] [µg/mL] | MIC [9] [µg/mL] | MIC [10] [µg/mL] | MIC [11] [µg/mL] | MIC [12] [µg/mL]
1 | N#Cc1cnc2ccc(=O)n(CCN[C@H]3CC[C@H]4[C@H](C3)OC(=O)N4c3ccc4c(n3)NC(=O)CS4)c2c1 [Compound 77, 5-(2-{[(3aS,6S,7aS)-2-oxo-3-{3-oxo-2H,3H,4H-pyrido[3,2-b][1,4]thiazin-6-yl}-octahydro-1,3-benzoxazol-6-yl]amino}ethyl)-6-oxo-5,6-dihydro-1,5-naphthyridine-3-carbonitrile] | < 1 | < 1 | < 1 | < 1 | 1 | < 1 | 1 | < 1 | > 100 | < 1 | < 1 | < 1 | < 1 | < 1 | 1 to 10 (≈ 1.93 to 19.3 µM) |  | 
2 | COc1ccc2ncc(=O)n(CCNC3CCC4C(C3)OC(=O)N4c3ccc4c(n3)NC(=O)CO4)c2n1 (stereo in doubt) [Compound 43, (3aR,6R,7aR)-6-[(2-{6-methoxy-3-oxo-3H,4H-pyrido[2,3-b]pyrazin-4-yl}ethyl)amino]-3-{3-oxo-2H,3H,4H-pyrido[3,2-b][1,4]oxazin-6-yl}-octahydro-1,3-benzoxazol-2-one] | < 1 | < 1 | < 1 | < 1 | 0.5 | < 1 | 1 | < 1 | > 100 | < 1 | < 1 | < 1 | < 1 | < 1 | < 1 | < 1 | < 1
3 | O=C1COc2ccc(N3C(=O)O[C@H]4C[C@@H](NCCn5c(=O)cnc6cc(F)c(F)cc65)CC[C@@H]43)nc2N1 [Compound 34, 1-(2-{[(3aS,6S,7aS)-2-oxo-3-{3-oxo-2H,3H,4H-pyrido[3,2-b][1,4]oxazin-6-yl}-octahydro-1,3-benzoxazol-6-yl]amino}ethyl)-6,7-difluoro-1,2-dihydroquinoxalin-2-one] | < 1 | < 1 | < 1 | < 1 | 2 | < 1 | 1 | < 1 |  | < 1 | < 1 | < 1 | < 1 | < 1 | 1 to 10 (≈ 1.95 to 19.5 µM) | < 1 | < 1
4 | COc1cccc(-c2cccc(CN[C@@H]3CC[C@@H]4[C@@H](C3)OC(=O)N4c3ccc4c(n3)NC(=O)CO4)c2)n1 [Compound 80, (3aR,6R,7aR)-6-({[3-(6-methoxypyridin-2-yl)phenyl]methyl}amino)-3-{3-oxo-2H,3H,4H-pyrido[3,2-b][1,4]oxazin-6-yl}-octahydro-1,3-benzoxazol-2-one] | < 1 | 1 to 10 (≈ 1.99 to 19.9 µM) | 1 to 10 (≈ 1.99 to 19.9 µM) | < 1 | 1 | < 1 | 1 | < 1 | 10 to 100 (≈ 19.9 to 199 µM) | < 1 | 1 to 10 (≈ 1.99 to 19.9 µM) | < 1 | < 1 | < 1 | 1 to 10 (≈ 1.99 to 19.9 µM) | < 1 | 1 to 10 (≈ 1.99 to 19.9 µM)

Source: patent publication US10487093B2, “Heterocyclic compounds, in particular 2-oxo-4,4,5,5,6,6,7,7-octahydrobenzoxazole derivatives, and their use as antibacterial compounds” (priority 2016, dated 2019)
